Data: patent publication US11180452B2, “Methods and compositions for selectively inhibiting pathogenic microbes” (priority 2019, dated 2021)
In brackets after ≈: the same amount, converted by molar mass. Where two headings read alike, the source gives them in different places.

What was measured:
Type in all cases: cell-based
Bacillus thuringiensis = settings: for MIC: Bacillus thuringiensis
[1] = test system: Burkholderia thailandensis Brett et al ATCC: 700388; experiment: microbe, parasite or virus in culture
Candida glabrata = Candida glabrata MIC / MFC; settings: Nakaseomyces glabratus
[2] = test system: Francisella tularensis subsp. Holarctica Strain LVSR NR-597; experiment: microbe, parasite or virus in culture
Bacillus subtilis = Bacillus subtilis MIC / MBC; settings: for MBC: Bacillus subtilis NRRL: B-571, minimum bactericidal concentration; for MIC: Bacillus subtilis
Trichophyton rubrum = experiment: MIC against Trichophyton rubrum; settings: Trichophyton rubrum Castellani Sabouraud ATCC: 28188; read-out: MIC
C. albicans = experiment: Candida albicans MIC / MFC
[3] = Bacillus thuringiensis Berliner ATCC: 10792
[4] = Bacillus thuringiensis Berliner ATCC: 10792, read-out: MIC
[5] = Candida glabrata #584 (Table 2), read-out: MIC
[6] = Bacillus subtilis (Ehrenberg 1835) Cohn 1872 NRRL: B-571, read-out: MIC
[7] = Candida glabrata #584 (Table 2), minimum fungicidal concentration, read-out: MFC
[8] = C. glabrata strain #325, read-out: MIC
[9] = C. glabrata strain #584 (Table 7), read-out: MIC
[10] = C. albicans strain #761, read-out: MIC
[11] = C. albicans strain #762, read-out: MIC

O=S(=O)(c1ccc(Br)cc1)c1c[nH]c2ccc(Br)cc12 [Compound 172J, 5-bromo-3-((4-bromophenyl)sulfonyl)-1H-indole]
MBC (Bacillus thuringiensis; [3]): 3.13 µg/mL (≈ 7.54 µM) | MIC (Bacillus thuringiensis; [4]): 1.56 µg/mL (≈ 3.76 µM) | MIC [1]: > 50 µg/mL | MIC (Candida glabrata; [5]): > 50 µg/mL | MIC [2]: 6.25 µg/mL (≈ 15.1 µM) | MBC (Bacillus subtilis): 6.25 µg/mL (≈ 15.1 µM) | MIC (Bacillus subtilis; [6]): 3.13 µg/mL (≈ 7.54 µM) | MIC (Trichophyton rubrum): 10.3 µg/mL (≈ 24.8 µM)

COc1ccc(Sc2c[nH]c3ccc(Br)cc23)cc1 [Compound 174Q, 5-bromo-3-((4-methoxyphenyl)thio)-1H-indole]
MBC (Bacillus thuringiensis; [3]): 12.5 µg/mL (≈ 37.4 µM) | MIC (Bacillus thuringiensis; [4]): 1.56 µg/mL (≈ 4.67 µM) | MIC [1]: > 50 µg/mL | MFC (Candida glabrata; [7]): > 50 µg/mL | MIC (Candida glabrata; [5]): 3.13 µg/mL (≈ 9.36 µM) | MBC (Bacillus subtilis): > 50 µg/mL | MIC (Bacillus subtilis; [6]): 1.56 µg/mL (≈ 4.67 µM) | MIC (Trichophyton rubrum): 2.08 µg/mL (≈ 6.22 µM)

[O-][S+](c1ccc(Br)cc1)c1c[nH]c2ccc(Br)cc12 (stereo not shown) [Compound 172I, 5-bromo-3-((4-bromophenyl)sulfinyl)-1H-indole]
MBC (Bacillus thuringiensis; [3]): 40 µg/mL (≈ 100 µM) | MIC (Bacillus thuringiensis; [4]): 10 µg/mL (≈ 25.1 µM) | MIC (Candida glabrata; [5]): > 40 µg/mL | MIC [2]: 20 µg/mL (≈ 50.1 µM) | MBC (Bacillus subtilis): 10 µg/mL (≈ 25.1 µM) | MIC (Bacillus subtilis; [6]): 10 µg/mL (≈ 25.1 µM) | MIC (Trichophyton rubrum): 9.92 µg/mL (≈ 24.9 µM)

Brc1ccc(Sc2c[nH]c3cc(Br)c(Br)cc23)cc1 [Compound 174AB, 5,6-dibromo-3-((4-bromophenyl)thio)-1H-indole]
MBC (Bacillus thuringiensis; [3]): 8 µg/mL (≈ 17.3 µM) | MIC (Bacillus thuringiensis; [4]): 2 µg/mL (≈ 4.33 µM) | MIC (Bacillus thuringiensis; strain B-1596): 4 µg/mL (≈ 8.66 µM) | MIC [1]: > 50 µg/mL | MIC (Candida glabrata; [8]): > 50 µg/mL | MIC (Candida glabrata; [9]): 3.13 µg/mL (≈ 6.77 µM) | MIC (Candida glabrata; [5]): 3.13 µg/mL (≈ 6.77 µM) | MIC [2]: 4 µg/mL (≈ 8.66 µM) | MIC (C. albicans; [10]): > 50 µg/mL | MIC (C. albicans; [11]): > 50 µg/mL | MBC (Bacillus subtilis): 16 µg/mL (≈ 34.6 µM) | MIC (Bacillus subtilis; [6]): 4 µg/mL (≈ 8.66 µM) | MIC (Bacillus subtilis; strain B-1985, read-out: Bacillus subtilis MIC): 4 µg/mL (≈ 8.66 µM) | MIC (Bacillus subtilis; strain B-3665, read-out: Bacillus subtilis MIC): 2 µg/mL (≈ 4.33 µM) | MIC (Bacillus subtilis; strain B-14322, read-out: Bacillus subtilis MIC): 2 µg/mL (≈ 4.33 µM) | MIC (Bacillus subtilis; strain B-41090, read-out: Bacillus subtilis MIC): 4 µg/mL (≈ 8.66 µM) | MIC (Bacillus subtilis; strain B-41581, read-out: Bacillus subtilis MIC): 2 µg/mL (≈ 4.33 µM) | MIC (Bacillus subtilis; strain BD-594, read-out: Bacillus subtilis MIC): 4 µg/mL (≈ 8.66 µM)

Nc1ccc(Sc2c[nH]c3ccc(Br)cc23)cc1 [Compound 174Z, 4-((5-bromo-1H-indol-3-yl)thio)aniline]
MBC (Bacillus thuringiensis; [3]): > 10 µg/mL | MIC (Bacillus thuringiensis; [4]): 10 µg/mL (≈ 31.3 µM) | MIC [1]: > 50 µg/mL | MIC (Candida glabrata; [5]): 25 µg/mL (≈ 78.3 µM) | MBC (Bacillus subtilis): > 10 µg/mL | MIC (Bacillus subtilis; [6]): 10 µg/mL (≈ 31.3 µM) | MIC (Trichophyton rubrum): 3.97 µg/mL (≈ 12.4 µM)

Brc1ccc2[nH]cc(Sc3ccc(-c4ccccc4)cc3)c2c1 [Compound 174R, 3-([1,1′-biphenyl]-4-ylthio)-5-bromo-1H-indole]
MIC (Bacillus thuringiensis; [4]): > 50 µg/mL | MIC [1]: > 50 µg/mL | MIC (Candida glabrata; [5]): > 50 µg/mL | MIC (Bacillus subtilis; [6]): > 50 µg/mL | MIC (Trichophyton rubrum): > 9.5 µg/mL

Brc1ccc2[nH]cc(Sc3ccc4ccccc4c3)c2c1 [Compound 174S, 5-bromo-3-(naphthalen-2-ylthio)-1H-indole]
MIC (Bacillus thuringiensis; [4]): > 50 µg/mL | MIC [1]: > 50 µg/mL | MIC (Candida glabrata; [5]): > 50 µg/mL | MIC (Bacillus subtilis; [6]): > 50 µg/mL | MIC (Trichophyton rubrum): > 8.82 µg/mL

Clc1cccc(Sc2c[nH]c3ccc(Br)cc23)c1Cl [Compound 174T, 5-bromo-3-((2,3-dichlorophenyl)thio)-1H-indole]
MBC (Bacillus thuringiensis; [3]): 2.5 µg/mL (≈ 6.7 µM) | MIC (Bacillus thuringiensis; [4]): 1.25 µg/mL (≈ 3.35 µM) | MIC [1]: > 50 µg/mL | MFC (Candida glabrata; [7]): 25 µg/mL (≈ 67 µM) | MIC (Candida glabrata; [5]): 3.13 µg/mL (≈ 8.39 µM) | MBC (Bacillus subtilis): > 10 µg/mL | MIC (Bacillus subtilis; [6]): 1.25 µg/mL (≈ 3.35 µM) | MIC (Trichophyton rubrum): 1.16 µg/mL (≈ 3.11 µM)

Fc1ccc2c(Sc3ccc(Br)cc3)c[nH]c2c1 [Compound 172A, 3-((4-bromophenyl)thio)-6-fluoro-1H-indole]
MBC (Bacillus thuringiensis; [3]): 1.56 µg/mL (≈ 4.84 µM) | MIC (Bacillus thuringiensis; [4]): 1.56 µg/mL (≈ 4.84 µM) | MIC [1]: > 50 µg/mL | MFC (Candida glabrata; C. glabrata strain #325): 12.5 µg/mL (≈ 38.8 µM) | MIC (Candida glabrata; C. glabrata strain #325): 6.25 µg/mL (≈ 19.4 µM) | MFC (Candida glabrata; [7]): 3.13 µg/mL (≈ 9.71 µM) | MIC (Candida glabrata; [5]): 1.56 µg/mL (≈ 4.84 µM) | MIC [2]: 0.78 µg/mL (≈ 2.42 µM) | MFC (C. albicans; C. albicans strain #761): 12.5 µg/mL (≈ 38.8 µM) | MIC (C. albicans; C. albicans strain #761): 3.13 µg/mL (≈ 9.71 µM) | MFC (C. albicans; C. albicans strain #762): 6.25 µg/mL (≈ 19.4 µM) | MIC (C. albicans; C. albicans strain #762): 1.56 µg/mL (≈ 4.84 µM) | MBC (Bacillus subtilis): > 50 µg/mL | MIC (Bacillus subtilis; [6]): 1.56 µg/mL (≈ 4.84 µM) | MIC (Trichophyton rubrum): 9.52 µg/mL (≈ 29.5 µM)

Brc1ccc2[nH]cc(Sc3cccc4ccccc34)c2c1 [Compound 174G, 5-bromo-3-(naphthalen-1-ylthio)-1H-indole]
MBC (Bacillus thuringiensis; [3]): 3.13 µg/mL (≈ 8.84 µM) | MIC (Bacillus thuringiensis; [4]): 1.56 µg/mL (≈ 4.4 µM) | MIC [1]: > 50 µg/mL | MIC (Candida glabrata; [5]): > 50 µg/mL | MBC (Bacillus subtilis): 50 µg/mL (≈ 141 µM) | MIC (Bacillus subtilis; [6]): 1.56 µg/mL (≈ 4.4 µM) | MIC (Trichophyton rubrum): 2.21 µg/mL (≈ 6.24 µM)

COc1ccc(Sc2c[nH]c3ccccc23)cc1 [Compound 156O, 3-((4-methoxyphenyl)thio)-1H-indole]
MBC (Bacillus thuringiensis; [3]): > 50 µg/mL | MIC (Bacillus thuringiensis; [4]): 6.25 µg/mL (≈ 24.5 µM) | MIC (Candida glabrata; [5]): 50 µg/mL (≈ 196 µM) | MIC [2]: 3.13 µg/mL (≈ 12.3 µM) | MBC (Bacillus subtilis): 12.5 µg/mL (≈ 49 µM) | MIC (Bacillus subtilis; [6]): 6.25 µg/mL (≈ 24.5 µM) | MIC (Trichophyton rubrum): 3.19 µg/mL (≈ 12.5 µM)

Brc1ccc(Sc2c[nH]c3cc(Br)cc(Br)c23)cc1 [Compound 174AE, 4,6-dibromo-3-((4-bromophenyl)thio)-1H-indole]
MBC (Bacillus thuringiensis; [3]): > 50 µg/mL | MIC (Bacillus thuringiensis; [4]): 2 µg/mL (≈ 4.33 µM) | MIC [1]: > 50 µg/mL | MFC (Candida glabrata; C. glabrata strain #325, read-out: MFC): > 50 µg/mL | MIC (Candida glabrata; [8]): 12.5 µg/mL (≈ 27.1 µM) | MIC (Candida glabrata; [9]): 25 µg/mL (≈ 54.1 µM) | MIC (Candida glabrata; [5]): 25 µg/mL (≈ 54.1 µM) | MIC [2]: 4 µg/mL (≈ 8.66 µM) | MFC (C. albicans; C. albicans strain #761, read-out: MFC): > 50 µg/mL | MIC (C. albicans; [10]): 50 µg/mL (≈ 108 µM) | MFC (C. albicans; C. albicans strain #762, read-out: MFC): 25 µg/mL (≈ 54.1 µM) | MIC (C. albicans; [11]): 6.25 µg/mL (≈ 13.5 µM) | MBC (Bacillus subtilis): 4 µg/mL (≈ 8.66 µM) | MIC (Bacillus subtilis; [6]): 2 µg/mL (≈ 4.33 µM)
